# Measured values published in patent US20070149466A1, “Methods and related compositions for treating or preventing obesity, insulin resistance disorders, and mitochondrial-associated disorders” (priority 2005, published 2007).
# Tests used:
# [1] = tested on: HDAC; conditions: cited from earlier work; for concentration at which HDAC is inhibited: literature statements, in vitro or in vivo for SAHA, SBHA, CBHA
# [2] = tested on: Zucker diabetic fatty rats; test: Zucker diabetic rat model, 42 days oral dosing; assay type: in vivo; conditions: for daily body weights / food intake: 200 mg/kg orally twice a day, 43 days, vs vehicle and other groups; for fasting serum glucose levels: day 8, 15, 22, 29, 36 and 43, 200 mg/kg orally twice a day
# Experimental: Groups of 8 rats were used for each group (6 weeks old, 190±10 grams). […] Blood samples were collected from the retro-orbital sinus 35 minutes before glucose load (Fasting glucose) and 90 minutes post oral glucose load. Serum glucose levels were determined by means of a Hitachi Model 750 Automatic Analyzer.
# [3] = tested on: male C57BL/6J mice; test: Energy expenditure by indirect calorimetry (oxygen consumption) in DIO mice; assay type: in vivo; conditions: 400 mg/kg/day co-administrated with a high fat diet
# Experimental: Nocturnal energy expenditure of groups 1, 3 and 5 (chow diet, high fat diet and high fat diet 400 mg) is measured by indirect calorimetry. Energy expenditure. Energy expenditure is evaluated through indirect calorimetry by measuring oxygen consumption with the Oxymax apparatus (Columbus Instruments, Columbus, Ohio) during 12 h. This system consists of an open circuit with air coming in and out of plastic cages (one mouse per cage). Animals are allowed free access to food and water. A very precise CO2 and O2 sensor measures the difference in O2 and CO2 concentrations in both air volumes, which gives the amount of oxygen consumed in a period of time given that the air flow of air coming in the cage is constant. The data coming out of the apparatus are processed in a connected computer, analyzed, and shown in an exportable Excel file. The values are expressed as ml.kg^−1.h^−1, which is commonly known as the VO2.
# [4] = tested on: high fat diet fed C57BL/6J mice; test: Intraperitoneal and oral glucose tolerance tests in DIO mice; assay type: in vivo; conditions: 400 mg/kg/day, IPGTT and OGTT 2 g glucose/kg
# Experimental: During week 10, glucose tolerance is determined by subjecting all the animals to an intraperitoneal glucose tolerance test (IPGTT). Animals are fasted for 12 h prior to this test. During week 16, glucose tolerance is analysed by performing an oral glucose tolerance test (OGTT) on a subset of animals (n=5) of groups 3, 4 and 5, and an intraperitoneal insulin sensitivity test (IPIST) on another subset of animals (n=5). During these experiments, blood is also collected to analyze insulin levels. Animals are fasted 12 h prior these tests. Intraperitoneal glucose tolerance test—Oral glucose tolerance test. IPGTT and OGTT are performed in mice which are fasted overnight (12 h). Mice are either injected intraperitoneally (IPGTT) or orally gavaged (OGTT) with a solution of 20% glucose in sterile saline (0.9% NaCl) at a dose of 2 g glucose/kg body weight. Blood is collected from the tail vein, for glucose and insulin monitoring, prior to and at 15, 30, 45, 75, 90, 120, 150, 180 min after administration of the glucose solution. The incremental area of the glucose curve is calculated as a measure of insulin sensitivity, whereas the corresponding insulin levels indicate insulin secretory reserves.
# [5] = tested on: PGC1 alpha; test: Immunoblot of PGC1 alpha acetylation in gastrocnemius muscle nuclear extracts; assay type: in vivo, mice; conditions: high fat diet plus 400 mg/kg resveratrol vs high fat diet, 15 weeks
# Text: Following immunoprecipitation with a PGC 1 alpha antibody (Santa Cruz Biotechnology, cat #SC-13067), secondary western blots were probed with either a acetylated lysine specific monoclonal (Cell Signaling Technology, Cat #9441; top left panel) or a PGC1alpha antibody (Santa Cruz Biotechnology, cat #SC-13067; lower left panel). Exposures were scanned and the acetylation status of PGC1alpha compared to total PGC1alpha of animals on either the HF or HF+[…] is shown in the right hand panel.
# [6] = Tolerability of resveratrol as a food additive; assay type: in vivo
# Experimental: (§1) In this long-term study, 50 male C57BL6J mice (5 weeks of age) are analyzed during a period of 18 weeks.
# [7] = tested on: mice; test: Serum biochemical analysis in DIO mice; assay type: in vivo; conditions: 16 weeks, high fat plus 400 mg/kg/day
# Experimental: Diet induced obesity was established in mice as described above in Example 1.
# The values shown are based on an average of measurements from 10 animals for each dietary group. Levels of total cholesterol, HDL-cholestrol, LDL-cholesterol, triglycerides, free fatty acids, aspartate aminotransferase […], alanine aminotransferase (ALAT), and alkaline […] (ALP) were determined using standard procedures. ASAT, ALP and ALAT were measured by kinetic UV and colour tests using methods based on the recommendations of the ‘International Federation for Clinical Chemistry’ (IFCC) on an Olympus AU-400 automated laboratory work station. AST was quantified using the OSR6109 reagent system which is based on the activity of AST that catalyzes the transamination of aspartate and 2-oxoglutarate to L-glutamate and oxalacetate. […] The decrease in absorbance due to the consumption of NADH is measured at […] and is proportional to the AST activity in the sample. ALT was quantified using the OSR6107 reagent system which is based on the activity of ALT that transfers the amino group from alanine to 2-oxoglutarate to form pyruvate and glutamate. […] As with the AST measurement, consumption of NADH is measured at […] and is proportional to the amount of ALT activity in the sample. ALP is measured by determining the rate of conversion of p-nitro-phenyl phosphate to p-nitrophenol (pNP). […]
# [8] = tested on: mice; test: Succinate dehydrogenase staining of brown adipose tissue and muscle of DIO mice; assay type: in vivo; conditions: 16 weeks, HF+R400 vs HF diet
# Experimental: Succinate dehydrogenase is a marker of mitochondrial activity and produces a dark stain in the photos. Tissues were collected and immediately frozen in methylbutane, then kept at −80° C. prior to sectioning and staining. Succinate Dehydrogenase staining was carried out using standard procedures and commercially available reagents (see e.g., Reichmann H and Wildenauer D, Histochemistry, 96: 251-3 (1991)).
# [9] = tested on: mice; test: Hematoxylin and eosin staining of tissue sections of DIO mice; assay type: in vivo; conditions: 16 weeks, high fat plus 400 mg/kg/day vs control and high fat diets
# Experimental: After collection, tissues were fixed in 4% paraformaldehyde, processed and embedded in paraffin prior to sectioning (10 microns) and staining. Tissue processing, paraffin embedding, tissue sectioning and hematoxylin and eosin staining of histological sections were carried out using standard procedures and commercially available materials (see e.g., McManus J. F. A. and Mowry, R. W., Staining Methods. Histologic and Histochemcial, Harper and Row, New York 1960; Luna L. G., Hitopathological Methods and Color Atlas of Special Stains and Tissue Artifacts, Johnson Printers, Downers Grove, Ill. 1992; Gabe M., Techniques histologiques. Masson, Paris 1968; and world wide web at statlab.com).
# [10] = tested on: male C57BL/6 mice; test: Cold test (body temperature at 4° C.) in DIO mice; assay type: in vivo; conditions: 400 mg/kg/day coadministered with a high fat diet, p<0.05
# Experimental: During week 18, a cold test is performed on all animals by measuring body temperature of animals exposed to 4° C.
# [11] = tested on: male C57BL/6J mice; test: Circadian (spontaneous locomotor) activity in DIO mice; assay type: in vivo; conditions: 400 mg/kg/day, high fat diet
# Experimental: During week 13, circadian activity of groups 3, 4 and 5 (high fat diet fed mice) is studied during a period of […]. A circadian activity measurement is performed on groups […]. Spontaneous locomotor activity is measured using individual boxes, each composed with a sliding floor, a detachable cage, and equipped with infra-red captors allowing measurement of ambulatory locomotor activity and rears. Boxes are linked to a computer using an electronic interface (Imetronic, Pessac, France). Mice are tested for 32 h in order to measure habituation to the apparatus as well as nocturnal and diurnal activities. The quantity of water consumed is measured during the test period using an automated lickometer.
# [12] = tested on: male C57BL/6J mice; test: Diet induced obesity (DIO) mouse model: body weight, food intake, body fat content (dexa scanning); assay type: in vivo; conditions: resveratrol 400 mg/kg/day co-administered with a high fat diet
# Experimental: The mice undergo an extensive phenotypic and molecular analysis to define the regulatory pathways affected by Sirt-1 activation.
# as §1
# During the entire study, body weight and food intake
# are monitored twice weekly.
# During week 1, body composition is analyzed, for all groups, by dual energy X-ray absorptiometry (dexascan).
# During week 12, body weight composition is again analysed by dexascan for all groups.
# Diet. The standard rodent chow diet is obtained from UAR and the high fat diet is obtained from Research Diet. Mice are fed, either with chow diet (16% protein, 3% fat, 5% fiber, 5% ash) or with high fat diet (26.2% protein, 26.3% carbohydrate, 34.9% fat). Resveratrol is mixed with either powdered chow diet or powdered high fat diet and pellets are reconstituted. Control groups receive pellets as provided by the company. Due to the consistency of the high fat diet, it is not necessary to add water to mix it with the resveratrol. […]
# Determination of body fat content by Dexa scanning. […] Bone mineral density (BMD in g/cm^2) and body composition are determined by using the PIXIMUS software (version 1.4x, GE Medical Systems).
# The bottom panels show comparisons of body fat content, as analyzed by dexa scanning, at […] of treatment for mice in the four dietary groups. […]
# [13] = tested on: mice; test: Transmission electron microscopy of gastrocnemius muscle and brown adipose tissue of DIO mice; assay type: in vivo; conditions: 16 weeks
# Experimental: Transmission electron microscopy was carried out using standard techniques as described below. The mitochondria can be seen as the darker oblong Z lines crossing the I lines.
# Transmission electron microscopy was carried out using standard techniques as described below. Fat droplets may be observed at either magnification as white or light gray droplets and mitochondria can be observed at the higher magnification as roundish striated structures.
# Transmission Electronic Microscopy/Preparation of Samples: The biopsies of gastrocnemius muscle and brown adipose tissue were cut in pieces of 1 mm and fixed immediately after collection in Kamovsky fixative (glutaraldehyde in cacodylate buffer) and kept at 4° C. without time limitation. The second step is the post-fixation with 1% osmium tetraoxide in 0.1M cacodylate buffer for 1 h at 4° C. Tissues were then dehydrated through successive baths of graded alcohol followed by a propylene oxide bath, and then a treatment with a propylene oxide and resine mix before to be embedded in a pure epoxy resine (araldite, Epon 812) which becomes solid after 48 h at 60° C. Semithin sections were cut at 2 μm and stained with toluidine blue, and histologically analysed by light microscopy. Ultrathin sections were cut at 70 nm and contrasted with uranyl acetate and lead citrate, and examined with a Philips 208 electron microscope.
# [14] = high fat diet plus 400 mg/kg/day resveratrol
compound,measurement,setting,value
"O=C(/C=C/c1cccc(C(=O)NO)c1)NO [CBHA, m-carboxy-cinnamic acid bishydroxamic acid]",concentration at which HDAC is inhibited,[1],micromolar concentration or lower
C/C=C1\NC(=O)[C@H]2CSSCC/C=C/[C@H](CC(=O)N[C@H](C(C)C)C(=O)N2)OC(=O)[C@H](C(C)C)NC1=O [Depsipeptide],concentration at which HDAC is inhibited,[1],micromolar concentrations
"CN(C)C(=N)N=C(N)N [metformin, reference compound]",daily body weights,[2],no statistical difference
same,food intake,[2],no statistical difference
same,fasting serum glucose levels,[2],no difference
"Oc1ccc(/C=C/c2cc(O)cc(O)c2)cc1 [resveratrol, 3,5,4′-Trihydroxy-trans-stilbene]",energy expenditure,[3],increases energy expenditure
same,glucose tolerance,[4],increases glucose tolerance
same,PGC1 alpha deacetylation,[5],increases PGC1 alpha deacetylation
same,food aversion,[6],does not cause food aversion
same,tolerability,[6],well tolerated
same,"serum biochemical markers (total, HDL and LDL cholesterol, triglycerides, free fatty acids, ASAT, ALAT, ALP)",[7],fell within the normal range
same,"succinate dehydrogenase staining (marker of mitochondrial activity), brown adipose tissue",[8],significantly higher
same,"succinate dehydrogenase staining (marker of mitochondrial activity), gastrocnemius",[8],significantly higher
same,"succinate dehydrogenase staining, soleus",[8],little change
same,"histological changes (liver, epididymal WAT, BAT, gastrocnemius muscle; hematoxylin and eosin)",[9],few histological changes
same,adaptive thermogenesis (body temperature during 6 h cold test),[10],enhances adaptive thermogenesis
same,circadian locomotor activity,[11],significantly diminishes the circadian locomotor activity
same,daily body weights,[2],no statistical difference
same,food intake,[2],no statistical difference
same,fasting serum glucose levels,[2],no difference
same,diet-induced obesity,[12],prevents diet-induced obesity
same,"mitochondria in gastrocnemius muscle (non-oxidative fibers), transmission electron microscopy",[13]; HF+R400 vs control or high fat diets,more mitochondria
same,"fat droplets in brown adipose tissue, transmission electron microscopy",[13]; [14],smaller fat droplets
same,"mitochondria in brown adipose tissue, transmission electron microscopy",[13]; [14],more mitochondria
depudecin,concentration at which HDAC is inhibited,[1],micromolar concentrations
trichostatin A [TSA],inhibition of mammalian HDAC,[1]; Yoshida et al. (1990),potent inhibitor
